Data as given in patent US5366982A (priority 1990, dated 1994).

Target: leukotriene B4 receptors (Cavia porcellus, UniProt H0VYV8)
Assay: biochemical
Assay type: binding, guinea-pig
Conditions: for IC50: Table XIX, guinea-pig spleen membranes, tritium-labelled LTB4, read-out: IC50 Binding (Cheng); for inhibition at 10 µM: read-out: Binding (Cheng) % Inhibition at 10 μM

leukotriene B4 receptors, sequence (H0VYV8 1-348): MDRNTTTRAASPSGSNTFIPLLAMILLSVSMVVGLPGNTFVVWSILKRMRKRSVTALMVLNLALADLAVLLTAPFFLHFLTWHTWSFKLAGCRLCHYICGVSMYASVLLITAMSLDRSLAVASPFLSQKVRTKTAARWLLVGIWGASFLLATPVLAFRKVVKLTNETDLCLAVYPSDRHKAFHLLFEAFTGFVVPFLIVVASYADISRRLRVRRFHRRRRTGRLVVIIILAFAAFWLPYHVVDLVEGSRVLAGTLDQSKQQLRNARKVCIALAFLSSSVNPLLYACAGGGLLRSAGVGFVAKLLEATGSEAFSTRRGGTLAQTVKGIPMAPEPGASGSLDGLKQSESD

| IC50 | inhibition at 10 µM | SMILES |
| --- | --- | --- |
| 2500 nM | – | CC(C)(CCCCCCSc1ncc(-c2ccccc2)c(-c2ccccc2)n1)C(=O)O [2,2-dimethyl-8-(4,5-diphenyl-2-pyrimidylthio)octanoic acid] |
| 30 nM | – | O=C(O)CCCCCOc1cc(-c2ccc(Cl)cc2)c2ccccc2n1 [6-{[4-(4-chlorophenyl)-2-quinolyl]oxy}hexanoic acid] |
| 1000 nM | – | COc1ccc(-c2cc(-c3ccccc3)cc(OCCCCCC(=O)O)n2)cc1 [6-{[6-(4-methoxyphenyl)-4-phenyl-2-pyridyl]oxy}hexanoic acid] |
| 150 nM | – | CC(C)(CCCCOc1cc(-c2ccc([N+](=O)[O-])cc2)c2ccccc2n1)C(=O)O [2,2-dimethyl-6-{[4-(4-nitrophenyl)-2-quinolyl]oxy}hexanoic acid] |
| 150 nM | – | CC(C)(CCCCOc1cc(-c2ccc(F)cc2)c2ccccc2n1)C(=O)O [2,2-dimethyl-6-{[4-(4-fluorophenyl-2-quinolyl]oxy}hexanoic acid] |
| 4000 nM | – | O=C(O)CCCCCOc1cc(-c2ccc(NC(=O)c3ccccc3)cc2)cc(-c2ccccc2)n1 [6-{[4-(4-benzamidophenyl)-6-phenyl-2-pyridyl]oxy}hexanoic acid] |
| 15 nM | – | Cc1cccc(-c2cc(OCCCCCC(=O)O)nc(-c3ccccc3)c2)c1 [6-{[4-(3-methylphenyl)-6-phenyl-2-pyridyl]oxy}hexanoic acid] |
| 2000 nM | – | Cc1ccc2c(-c3ccccc3)cc(OCCCCC(C)(C)C(=O)O)nc2c1 [2,2-dimethyl-6-[(7-methyl-4-phenyl-2-quinolyl)oxy]hexanoic acid] |
| – | 22% | O=C(O)CCCCCCOc1ncc(-c2ccccc2)c(-c2ccccc2)n1 [7-(4,5-diphenyl-2-pyrimidyloxy)heptanoic acid] |
| 3500 nM | – | CC(C)(CCCCOc1cc(-c2ccc(Cl)c(Cl)c2)c2ccccc2n1)C(=O)O [2,2-dimethyl-6-{[4-(3,4-dichlorophenyl)-2-quinolyl]oxy}hexanoic acid] |
| 10 nM | – | Cc1cc(-c2ccccc2)cc(OCCCCC(C)(C)C(=O)O)n1 [6-[(6-methyl-4-phenyl-2-pyridyl)oxy]-2,2-dimethylhexanoic acid] |
| 30 nM | – | Cc1ccc(-c2cc(OCCCCC(C)(C)C(=O)O)nc3ccccc23)cc1 [2,2-dimethyl-6-{[4-(4-tolyl)-2-quinolyl]oxy}hexanoic acid] |
| 8 nM | – | O=C(O)CCCCCOc1cc(-c2ccccc2)cc(-c2ccccc2)c1 [6-(3,5-diphenyl-phenoxy)hexanoic acid] |
| 300 nM | – | Cc1ccc(-c2cc(-c3ccccc3)cc(OCCCCCC(=O)O)n2)cc1 [6-{[6-(4-methylphenyl)-4-phenyl-2-pyridyl]oxy}hexanoic acid] |
| 30 nM | – | CN(C)c1ccc(-c2cc(OCCCCC(C)(C)C(=O)O)nc3ccccc23)cc1 [2,2-dimethyl-6-{[4-(4-dimethylaminophenyl)-2-quinolyl]oxy}hexanoic acid] |
| 16 nM | – | COc1ccc(-c2cc(OCCCCC(C)C(=O)O)nc3ccccc23)cc1 (centres unmarked) [2-methyl-6-{[4-(4-methoxyphenyl)-2-quinolyl]oxy}hexanoic acid] |

| IC50 | inhibition at 10 µM | SMILES |
| --- | --- | --- |
| – | 33% | CC(C)(CCCCSc1cc(-c2ccccc2)c2ccccc2n1)C(=O)O [2,2-dimethyl-6-[(4-phenyl-2-quinolyl)thio]hexanoic acid] |
| 150 nM | – | O=C(O)CCCCCOc1nc(-c2ccccc2)cc(-c2ccccc2)n1 [6-[(4,6-diphenyl-2-pyrimidyl)oxy]hexanoic acid] |
| 1800 nM | – | O=C(O)CCCCCCOc1cc(-c2ccccc2)c2ccccc2n1 [7-[(4-phenyl-2-quinolyl)oxy]heptanoic acid] |
| – | 12% | O=C(CCCCCOc1cc(-c2ccccc2)c2ccccc2n1)N1CCCC1 [1-[6-(4-phenyl-2-quinolyloxy)hexanoyl]pyrrolidine] |
| 300 nM | – | CC(C)(CCCCOc1cc(-c2ccc(C(F)(F)F)cc2)c2ccccc2n1)C(=O)O [2,2-dimethyl-6-{[4-(4-trifluoromethylphenyl)-2-quinolyl]oxy}hexanoic acid] |
| – | 36% | COc1ccccc1-c1cc(OCCCCC(C)(C)C(=O)O)nc2ccccc12 [6-{[4-(2-methoxyphenyl)-2-quinolyl]oxy}-2,2-dimethylhexanoic acid] |
| 300 nM | – | COc1cccc(-c2cc(OCCCCC(C)(C)C(=O)O)nc3ccccc23)c1 [2,2-dimethyl-6-{[4-(3-methoxyphenyl)-2-quinolyl]oxy}hexanoic acid] |
| 900 nM | – | O=C(O)CCCCCOc1cc(-c2ccccc2)ccn1 [6-[(4-phenyl-2-pyridyl)oxy]hexanoic acid] |
| – | 15% | O=C(O)CCCCCOc1ccc(-c2ccccc2)c(-c2ccccc2)n1 [6-[(5,6-diphenyl-2-pyridyl)oxy]hexanoic acid] |
| 16 nM | – | O=C(O)CNC(=O)CCCOc1cc(-c2ccccc2)cc(-c2ccccc2)n1 [N-[4-(4,6-diphenyl-2-pyridyloxy)butanoyl]glycine] |
| – | 21% | COc1ccc(-c2cc(OCCCCCC(=O)O)nc(-c3ccccc3)c2)cc1OC [6-{[6-phenyl-4-(3,4-dimethoxyphenyl)-2-pyridyl]oxy]hexanoic acid] |
| 8000 nM | – | COc1ccc(-c2cnc(OCCCCCC(=O)O)nc2-c2ccc(OC)cc2)cc1 [6-[4,5-bis-(4-methoxyphenyl)-2-pyrimidyloxy]hexanoic acid] |
| 4 nM | – | O=C(O)CCCCCOc1cc(-c2cccc(Cl)c2)cc(-c2ccccc2)n1 [6-{[4-(3-chlorophenyl)-6-phenyl-2-pyridyl]oxy}hexanoic acid] |
| 400 nM | – | CC(C)(CCCCOc1cc(-c2ccccc2)c2ccccc2n1)c1nnn[nH]1 [5-{1,1-dimethyl-5-[(4-phenyl-2-quinolyl)oxy]pentyl}-[1H]-tetrazole] |
| 5000 nM | – | CCOC(=O)CCCCCOc1cc(-c2ccccc2)cc(-c2ccc(Cl)cc2)n1 [ethyl 6-{[6-(4-chlorophenyl)-4-phenyl-2-pyridyl]oxy}hexanoate] |

The next lines start with the compound.

| SMILES | IC50 | inhibition at 10 µM |
| --- | --- | --- |
| COc1cc(OC)cc(-c2cc(OCCCCCC(=O)O)nc(-c3ccccc3)c2)c1 [6-{[6-phenyl-4-(3,5-dimethoxyphenyl)-2-pyridyl]oxy}hexanoic acid] | – | 50% |
| COc1ccc(-c2ccc(OCCCCCC(=O)O)nc2-c2ccc(OC)cc2)cc1 [6-{[5,6-bis-(4-methoxyphenyl)-2-pyridyl]oxy}hexanoic acid] | – | 37% |
| c1ccc(-c2cc(-c3ccc4c(c3)OCO4)cc(OCCCCCc3nnn[nH]3)n2)cc1 [5-{5-{[6-phenyl-4-(3,4-methylenedioxyphenyl)-2-pyridyl]oxy}pentyl}-1H-tetrazole] | 2 nM | – |
| O=C(O)CCCCCCc1cccc(Cc2ccccc2)c1 [7-(3-benzylphenyl)heptanoic acid, 7-(3-benzyl-phenyl)heptanoic acid] | 7000 nM | – |
| COc1ccc(-c2cc(OCCCCCC(=O)O)nc(-c3ccc(OC)cc3)c2)cc1 [6-{[4,6-di(4-methoxyphenyl)-2-pyridyl]oxy}hexanoic acid] | 3000 nM | – |
| Cc1cccc(-c2cc(OCCCCC(C)(C)C(=O)O)nc3ccccc23)c1 [2,2-dimethyl-6-{[4-(3-tolyl)-2-quinolyl]oxy}hexanoic acid] | 3500 nM | – |
| Cc1cc(-c2ccccc2)cc(OCCCCCC(=O)O)n1 [6-[(6-methyl-4-phenyl-2-pyridyl)oxy]hexanoic acid] | 200 nM | – |
| O=C(O)CCCCC=Cc1cc(-c2ccccc2)c2ccccc2n1 [7-(4-phenyl-2-quinolyl)-6-hepten-1-oic acid] | – | 27% |
| O=C(O)CCCCCOc1cc(-c2ccccc2Cl)cc(-c2ccccc2)n1 [6-{[4-(2-chlorophenyl)-6-phenyl-2-pyridyl]oxy}hexanoic acid] | 200 nM | – |
| COc1ccc(-c2ccc(OCCCCCCCC(=O)O)nc2-c2ccc(OC)cc2)cc1 [8-{[5,6-bis-(4-methoxyphenyl)-2-pyridyl]oxy}octanoic acid] | 3000 nM | – |
| O=C(O)CCCCCOc1cc(-c2ccc(NC(=O)C(F)(F)F)cc2)cc(-c2ccccc2)n1 [6-{[4-(4-trifluoroacetamidophenyl)-6-phenyl-2-pyridyl]oxy}hexanoic acid] | 150 nM | – |
| CC(C)(CCCCOc1cc(-c2cccs2)c2ccccc2n1)C(=O)O [2,2-dimethyl-6-{[4-(2-thienyl)-2-quinolyl]oxy}hexanoic acid] | 200 nM | – |
| c1ccc(-c2cc(OCCCCCc3nnn[nH]3)nc3ccccc23)cc1 [5-{5-[(4-phenyl-2-quinolyl)oxy]pentyl}-[1H]-tetrazole] | 500 nM | – |
| O=C(O)CCCCCOc1cc(-c2ccc([N+](=O)[O-])cc2)cc(-c2ccccc2)n1 [6-{[4-(4-nitrophenyl)-6-phenyl-2-pyridyl]oxy}hexanoic acid] | 50 nM | – |
| O=C(O)CCCCCOc1cc(-c2ccccc2)cc(-c2ccc(Cl)cc2)n1 [6-{[6-(4-chlorophenyl)-4-phenyl-2-pyridyl]oxy}hexanoic acid] | 1000 nM | – |
| Clc1ccc(-c2cc(OCCCCCc3nnn[nH]3)nc3ccccc23)cc1 [5-{5-{[4-(4-chlorophenyl)-2-quinolyl]oxy}pentyl}-[1H]-tetrazole] | 25 nM | – |
| O=C(O)CCCCCCCOc1cccc(-c2ccccc2)n1 | 6000 nM | – |
| O=C(O)CCCCCCCOc1ncc(-c2ccccc2)c(-c2ccccc2)n1 [8-(4,5-diphenyl-2-pyrimidyloxy)octanoic acid] | 8500 nM | – |
| O=C(O)CCCCCCCSc1ncc(-c2ccccc2)c(-c2ccccc2)n1 | 3000 nM | – |
| O=C(O)CCCCCOc1ncc(-c2ccc(Cl)cc2)c(-c2ccc(Cl)cc2)n1 [6-[4,5-bis-(4-chlorophenyl)-2-pyrimidyloxy]hexanoic acid] | – | 48% |
| O=C(CCCOc1cc(-c2ccccc2)cc(-c2ccccc2)n1)Nc1ccccc1 [4-[(4,6-diphenyl-2-pyridyl)oxy]butanilide] | > 1000 nM | – |
| O=C(O)CCCCCCCSc1nc(-c2ccccc2)c2ccccc2n1 | 9000 nM | – |
| CC(C)(CCCCOc1cc(-c2ccc(Cl)cc2)cc(-c2ccccc2)n1)C(=O)O [2,2-dimethyl-6-{[4-(4-chlorophenyl)-6-phenyl-2-pyridyl]oxy}hexanoic acid] | 100 nM | – |
| CNc1ccc(-c2cc(OCCCCC(C)(C)C(=O)O)nc(-c3ccccc3)c2)cc1 [6-{[4-(4-methylaminophenyl)-6-phenyl-2-pyridyl]oxy}-2,2-dimethylhexanoic acid] | 8 nM | – |
| O=C(O)CCCCCOc1cc(-c2ccccc2)c2ccccc2n1 [6-[(4-phenyl-2-quinolyl)oxy]hexanoic acid] | 700 nM | – |
